Reference: patent US6960607B2, “Naphthyl benzoxazoles and benzisoxazoles as estrogenic agents” (Wyeth, priority 2001, dated 2005)

Tests used:
[1] = target: T1, human ERβ (Homo sapiens, UniProt Q92731); experiment: Radioligand binding competition with [3H]-17β-estradiol, ERβ; settings: ligand binding domain expressed in E. coli lysate, read-out: ER-β IC50
T1 construct: M214-Q530 of human ERβ; Flag (C); made in house; host or cells: E. coli BL21(DE3); clarified lysate used

[2] = target: T2, human ERα (Homo sapiens, UniProt P03372); experiment: Radioligand binding competition with [3H]-17β-estradiol, ERα; settings: ligand binding domain expressed in E. coli lysate, read-out: ER-α IC50
T2 construct: amino acids M250V595 of human ERα; His (N); made in house; host or cells: E. coli BL21(DE3); clarified lysate used
T2 sequence (P03372 250-595): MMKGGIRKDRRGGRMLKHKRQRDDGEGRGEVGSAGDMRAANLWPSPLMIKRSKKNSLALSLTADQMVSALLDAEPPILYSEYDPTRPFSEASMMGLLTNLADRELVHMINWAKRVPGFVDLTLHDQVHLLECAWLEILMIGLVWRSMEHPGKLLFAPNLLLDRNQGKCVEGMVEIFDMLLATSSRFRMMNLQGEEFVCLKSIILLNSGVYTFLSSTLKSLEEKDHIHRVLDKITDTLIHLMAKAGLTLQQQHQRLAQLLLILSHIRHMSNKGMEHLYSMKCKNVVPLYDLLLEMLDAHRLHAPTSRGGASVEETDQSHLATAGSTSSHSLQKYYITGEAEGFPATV

T1 sequence (Q92731 214-530): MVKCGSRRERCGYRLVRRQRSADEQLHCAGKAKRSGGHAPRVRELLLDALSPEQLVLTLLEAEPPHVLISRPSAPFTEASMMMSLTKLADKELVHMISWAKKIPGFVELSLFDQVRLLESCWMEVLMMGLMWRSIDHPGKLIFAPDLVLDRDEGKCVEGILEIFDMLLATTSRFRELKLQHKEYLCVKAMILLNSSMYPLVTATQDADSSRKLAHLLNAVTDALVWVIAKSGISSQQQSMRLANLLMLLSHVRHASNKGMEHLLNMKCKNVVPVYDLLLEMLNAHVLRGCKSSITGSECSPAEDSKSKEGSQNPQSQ

| Compound | IC50 [1] [nM] | IC50 [2] [nM] | melting point [°C] |
| --- | --- | --- | --- |
| Oc1ccc2oc(-c3ccc(O)c4ccccc34)nc2c1 [Example 6, 2-(4-Hydroxy-1-naphthyl)-1,3-benzoxazol-5-ol] | 230 | 581 | 182 to 184 |
| Cn1nc(-c2ccc3cc(O)ccc3c2)c2ccc(O)cc21 [Example 17, 3-(6-Hydroxy-2-naphthyl)-1-methyl-1H-indazol-6-ol] | 1510 | > 5000 | 290 to 292 |
| CCn1nc(-c2ccc3cc(O)ccc3c2)c2ccc(O)cc21 [Example 18, 1-Ethyl-3-(6-hydroxy-2-naphthyl)-1H-indazol-6-ol] | > 5000 | 3170 | 146 to 148 |
